# Laboratory results: paper PMC5513037, “Examining the influence of specificity ligands and ATP-competitive ligands on the overall effectiveness of bivalent kinase inhibitors” (Proteome Science, 2017)
# How the values were obtained:
# Test in all cases: KAM-matrix competition in K562 lysate;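 for 0.001 uM KAM: median log10 fold change of treatment over DMSO control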;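 for 0.01 uM KAM: median log10 fold change of treatment over DMSO control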;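 for 0.1 uM KAM: median log10 fold change of treatment over DMSO control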;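 for 1 uM KAM: median log10 fold change of treatment over DMSO control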;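 for 10 uM KAM: median log10 fold change of treatment over DMSO control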
# Assay type in all cases: binding
# PRKACG = target: T1, PRKACG (Homo sapiens, UniProt P22612);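 for 0.001 uM KAM: median log10 fold change of treatment over DMSO control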;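 for 0.01 uM KAM: median log10 fold change of treatment over DMSO control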;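 for 0.1 uM KAM: median log10 fold change of treatment over DMSO control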;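 for 1 uM KAM: median log10 fold change of treatment over DMSO control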;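 for 10 uM KAM: median log10 fold change of treatment over DMSO control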
# T1 construct: endogenous in cells; host or cells: K562
# Experimental: (§1) Supplement 12953_2017_125_MOESM1_ESM.zip/MS_Supp Info.xlsx, sheet "KAM" | column: 10 uM KAM; 1 uM KAM; 0.1 uM KAM; 0.01 uM KAM; 0.001 uM KAM; RB50
# ACVR2B = target: T2, ACVR2B (Homo sapiens, UniProt Q13705);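 for 0.001 uM KAM: median log10 fold change of treatment over DMSO control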;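 for 0.01 uM KAM: median log10 fold change of treatment over DMSO control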;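 for 0.1 uM KAM: median log10 fold change of treatment over DMSO control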;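 for 1 uM KAM: median log10 fold change of treatment over DMSO control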;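 for 10 uM KAM: median log10 fold change of treatment over DMSO control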
# T2 construct: endogenous in cells; host or cells: K562 cell lysate
# Experimental: as §1
# EEF2K = target: T3, EEF2K (Homo sapiens, UniProt O00418);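 for 0.001 uM KAM: median log10 fold change of treatment over DMSO control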;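 for 0.01 uM KAM: median log10 fold change of treatment over DMSO control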;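 for 0.1 uM KAM: median log10 fold change of treatment over DMSO control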;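 for 1 uM KAM: median log10 fold change of treatment over DMSO control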;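 for 10 uM KAM: median log10 fold change of treatment over DMSO control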
# T3 construct: endogenous in cells; host or cells: K562 lysate
# T3 sequence (O00418 1-725): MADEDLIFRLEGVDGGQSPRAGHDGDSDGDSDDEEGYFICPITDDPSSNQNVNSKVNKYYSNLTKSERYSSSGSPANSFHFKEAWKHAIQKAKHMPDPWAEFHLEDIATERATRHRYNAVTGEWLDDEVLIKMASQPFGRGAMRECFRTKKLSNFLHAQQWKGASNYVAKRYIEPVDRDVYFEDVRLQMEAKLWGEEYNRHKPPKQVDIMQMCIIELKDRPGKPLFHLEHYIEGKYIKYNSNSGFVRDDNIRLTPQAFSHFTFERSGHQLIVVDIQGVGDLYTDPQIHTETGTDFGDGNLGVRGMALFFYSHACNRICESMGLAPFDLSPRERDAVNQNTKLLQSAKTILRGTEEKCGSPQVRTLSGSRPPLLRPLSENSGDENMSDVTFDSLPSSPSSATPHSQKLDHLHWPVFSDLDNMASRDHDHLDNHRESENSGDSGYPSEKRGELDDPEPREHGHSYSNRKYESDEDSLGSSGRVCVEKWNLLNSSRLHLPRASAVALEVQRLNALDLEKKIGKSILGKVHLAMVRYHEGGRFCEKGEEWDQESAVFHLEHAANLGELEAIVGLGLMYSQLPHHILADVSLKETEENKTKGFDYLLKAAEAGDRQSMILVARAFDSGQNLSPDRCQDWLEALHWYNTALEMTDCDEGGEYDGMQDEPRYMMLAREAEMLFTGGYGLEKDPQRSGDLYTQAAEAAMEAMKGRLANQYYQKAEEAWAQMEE
# Experimental: as §1
# MAP3K5 = target: T4, MAP3K5 (Homo sapiens, UniProt Q99683)
# T4 construct: endogenous in cells; host or cells: K562 cell lysate
# T4 sequence (Q99683 1-1374): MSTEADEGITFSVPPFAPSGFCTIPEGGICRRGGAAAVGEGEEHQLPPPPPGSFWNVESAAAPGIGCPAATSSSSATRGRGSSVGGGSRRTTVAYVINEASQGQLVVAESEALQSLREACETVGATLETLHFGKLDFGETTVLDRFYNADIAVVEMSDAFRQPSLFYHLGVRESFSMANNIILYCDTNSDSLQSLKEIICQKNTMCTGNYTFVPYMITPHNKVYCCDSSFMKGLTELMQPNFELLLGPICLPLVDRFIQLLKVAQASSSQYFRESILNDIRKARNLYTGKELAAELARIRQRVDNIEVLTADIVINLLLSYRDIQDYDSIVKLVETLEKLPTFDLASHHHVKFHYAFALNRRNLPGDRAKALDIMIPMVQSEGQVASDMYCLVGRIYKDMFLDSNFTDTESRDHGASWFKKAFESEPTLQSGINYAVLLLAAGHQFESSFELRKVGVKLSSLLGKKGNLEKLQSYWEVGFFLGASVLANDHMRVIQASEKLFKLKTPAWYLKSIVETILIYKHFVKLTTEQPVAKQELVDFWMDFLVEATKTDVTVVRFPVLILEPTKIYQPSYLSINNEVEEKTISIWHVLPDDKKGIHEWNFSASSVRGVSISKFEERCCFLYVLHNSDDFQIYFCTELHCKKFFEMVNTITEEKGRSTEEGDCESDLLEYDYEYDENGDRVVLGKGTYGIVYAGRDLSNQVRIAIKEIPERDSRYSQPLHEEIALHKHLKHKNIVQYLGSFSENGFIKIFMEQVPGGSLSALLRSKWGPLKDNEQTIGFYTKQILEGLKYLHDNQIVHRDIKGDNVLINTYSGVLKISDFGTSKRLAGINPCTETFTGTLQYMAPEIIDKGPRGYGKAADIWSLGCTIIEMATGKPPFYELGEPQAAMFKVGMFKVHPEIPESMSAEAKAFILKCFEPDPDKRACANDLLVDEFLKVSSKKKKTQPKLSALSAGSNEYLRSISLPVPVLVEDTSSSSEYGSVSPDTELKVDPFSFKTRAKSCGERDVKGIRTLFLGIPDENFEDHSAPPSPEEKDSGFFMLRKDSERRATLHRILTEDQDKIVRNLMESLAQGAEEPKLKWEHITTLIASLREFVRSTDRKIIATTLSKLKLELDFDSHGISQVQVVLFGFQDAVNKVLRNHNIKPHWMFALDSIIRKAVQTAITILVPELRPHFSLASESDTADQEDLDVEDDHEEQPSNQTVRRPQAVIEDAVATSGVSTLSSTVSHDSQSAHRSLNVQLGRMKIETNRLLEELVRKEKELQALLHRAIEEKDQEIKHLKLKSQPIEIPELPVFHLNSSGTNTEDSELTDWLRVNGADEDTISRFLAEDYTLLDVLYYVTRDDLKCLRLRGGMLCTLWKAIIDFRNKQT
# Experimental: as §1
# MAST3 = target: T5, MAST3 (Homo sapiens, UniProt O60307)
# T5 construct: endogenous in cells; host or cells: K562 cells (lysate)
# Experimental: as §1
# [1] = KAM 0.001-10 uM, read-out: RB50 (the source's name)
# [2] = read-out: RB50 (the source's name)
# T5 sequence (O60307 whole entry): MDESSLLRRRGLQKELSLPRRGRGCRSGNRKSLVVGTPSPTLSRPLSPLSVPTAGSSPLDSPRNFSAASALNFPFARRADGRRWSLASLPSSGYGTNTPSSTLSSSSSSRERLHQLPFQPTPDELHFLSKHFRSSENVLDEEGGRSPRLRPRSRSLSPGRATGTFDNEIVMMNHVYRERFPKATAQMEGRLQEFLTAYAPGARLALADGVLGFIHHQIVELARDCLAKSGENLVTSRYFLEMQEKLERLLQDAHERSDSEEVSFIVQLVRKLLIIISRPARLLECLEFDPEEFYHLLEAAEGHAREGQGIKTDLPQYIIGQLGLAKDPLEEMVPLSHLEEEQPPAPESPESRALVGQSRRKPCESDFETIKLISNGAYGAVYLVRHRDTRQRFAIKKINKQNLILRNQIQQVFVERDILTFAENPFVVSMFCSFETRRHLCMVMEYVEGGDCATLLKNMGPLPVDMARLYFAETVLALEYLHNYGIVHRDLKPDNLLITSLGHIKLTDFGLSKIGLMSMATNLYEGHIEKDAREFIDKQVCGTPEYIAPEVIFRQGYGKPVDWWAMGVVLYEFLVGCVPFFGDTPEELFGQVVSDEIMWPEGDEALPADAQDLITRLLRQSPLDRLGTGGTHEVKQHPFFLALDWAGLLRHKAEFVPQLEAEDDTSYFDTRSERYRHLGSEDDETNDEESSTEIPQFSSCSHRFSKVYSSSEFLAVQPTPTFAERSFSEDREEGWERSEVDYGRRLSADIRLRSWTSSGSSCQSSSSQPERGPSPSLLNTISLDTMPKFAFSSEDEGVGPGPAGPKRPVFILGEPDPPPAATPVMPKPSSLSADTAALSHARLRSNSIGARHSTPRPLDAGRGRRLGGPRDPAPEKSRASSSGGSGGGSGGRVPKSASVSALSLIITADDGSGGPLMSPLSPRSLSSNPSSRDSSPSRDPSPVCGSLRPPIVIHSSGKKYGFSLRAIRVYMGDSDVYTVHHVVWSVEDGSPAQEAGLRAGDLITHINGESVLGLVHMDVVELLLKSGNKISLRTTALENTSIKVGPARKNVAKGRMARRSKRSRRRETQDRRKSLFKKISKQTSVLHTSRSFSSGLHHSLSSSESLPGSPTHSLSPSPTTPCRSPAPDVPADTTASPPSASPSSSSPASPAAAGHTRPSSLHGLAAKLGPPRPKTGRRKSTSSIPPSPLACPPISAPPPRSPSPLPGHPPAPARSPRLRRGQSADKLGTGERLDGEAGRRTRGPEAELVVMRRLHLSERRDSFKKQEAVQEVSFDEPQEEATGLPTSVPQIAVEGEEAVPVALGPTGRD
# T2 sequence (Q13705 19-512): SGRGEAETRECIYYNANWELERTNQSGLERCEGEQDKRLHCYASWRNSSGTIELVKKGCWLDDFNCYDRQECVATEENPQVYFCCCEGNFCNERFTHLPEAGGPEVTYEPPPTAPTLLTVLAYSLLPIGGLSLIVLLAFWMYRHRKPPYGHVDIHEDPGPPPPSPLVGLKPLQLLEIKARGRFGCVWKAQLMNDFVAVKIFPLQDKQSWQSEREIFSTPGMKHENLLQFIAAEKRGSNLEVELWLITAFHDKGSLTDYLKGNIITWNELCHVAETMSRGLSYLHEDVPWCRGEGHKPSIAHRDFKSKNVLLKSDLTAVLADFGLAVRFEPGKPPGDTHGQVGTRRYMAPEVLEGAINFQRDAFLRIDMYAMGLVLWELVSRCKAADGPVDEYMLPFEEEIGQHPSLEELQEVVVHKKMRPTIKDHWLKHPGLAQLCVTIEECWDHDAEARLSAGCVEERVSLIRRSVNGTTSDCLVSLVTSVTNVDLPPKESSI
# T1 sequence (P22612 whole entry): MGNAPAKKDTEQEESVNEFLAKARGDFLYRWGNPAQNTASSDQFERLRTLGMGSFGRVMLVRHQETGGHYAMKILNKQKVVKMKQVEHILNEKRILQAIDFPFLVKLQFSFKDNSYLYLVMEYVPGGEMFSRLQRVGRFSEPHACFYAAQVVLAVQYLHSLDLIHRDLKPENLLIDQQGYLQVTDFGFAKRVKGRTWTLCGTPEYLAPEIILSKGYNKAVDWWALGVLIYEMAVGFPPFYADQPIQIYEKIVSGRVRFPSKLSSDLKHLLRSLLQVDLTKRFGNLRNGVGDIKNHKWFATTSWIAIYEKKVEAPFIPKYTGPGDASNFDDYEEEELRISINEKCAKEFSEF
structure (smiles),measurement,setting,value
N#CCc1ccc(Nc2nc(NCCCN)cc(Nc3cc(C4CC4)[nH]n3)n2)cc1 [KAM],IC50,PRKACG; [1],> 10 µM
same,0.001 uM KAM,PRKACG; relative to 0 uM KAM = 0,-0.03855
same,0.01 uM KAM,PRKACG; relative to 0 uM KAM = 0,0.1471
same,0.1 uM KAM,PRKACG; relative to 0 uM KAM = 0,0.178
same,1 uM KAM,PRKACG; relative to 0 uM KAM = 0,0.2462
same,10 uM KAM,PRKACG; relative to 0 uM KAM = 0,0.202
same,IC50,ACVR2B; [1],> 10 µM
same,0.001 uM KAM,ACVR2B; relative to 0 uM KAM = 0,0.02766
same,0.01 uM KAM,ACVR2B; relative to 0 uM KAM = 0,-0.009918
same,0.1 uM KAM,ACVR2B; relative to 0 uM KAM = 0,-0.09138
same,1 uM KAM,ACVR2B; relative to 0 uM KAM = 0,-0.2794
same,10 uM KAM,ACVR2B; relative to 0 uM KAM = 0,-0.2958
same,IC50,EEF2K; [1],> 10 µM
same,0.001 uM KAM,EEF2K; relative to 0 uM KAM = 0,0.04185
same,0.01 uM KAM,EEF2K; relative to 0 uM KAM = 0,0.02355
same,0.1 uM KAM,EEF2K; relative to 0 uM KAM = 0,0.1074
same,1 uM KAM,EEF2K; relative to 0 uM KAM = 0,0.1036
same,10 uM KAM,EEF2K; relative to 0 uM KAM = 0,0.09999
same,median Log10 fold change,MAP3K5; 0.001 uM KAM,-0.02718
same,median Log10 fold change,MAP3K5; 0.01 uM KAM,-0.01436
same,median Log10 fold change,MAP3K5; 0.1 uM KAM,-0.08414
same,median Log10 fold change,MAP3K5; 1 uM KAM,-0.1836
same,median Log10 fold change,MAP3K5; 10 uM KAM,-0.3705
same,IC50,MAP3K5; [2],4.18 µM
same,median Log10 fold change,MAST3; 0.001 uM KAM,-0.04433
same,median Log10 fold change,MAST3; 0.01 uM KAM,-0.01527
same,median Log10 fold change,MAST3; 0.1 uM KAM,-0.1684
same,median Log10 fold change,MAST3; 1 uM KAM,-0.3441
same,median Log10 fold change,MAST3; 10 uM KAM,-0.4667
same,IC50,MAST3; [2],0.784 µM
